# Where a name gives a salt, the structure may show the parent alone.
# Assays:
# nutritional obesity rats [1] = experiment: Body weight of nutritional obesity rats on high-fat feed, intragastric drug for 30 d (Example 17); assay type: in vivo, rat; details: x ± s; for Body weight(g) (After-experiment) / Body weight(g) increased: Table 1, high-fat feed; for Body weight(g) (After-experiment): after 30 d intragastric administration; for Body weight(g) increased: increase over 30 d of administration; on Body weight(g) (After-experiment): test concentration or dose not given here; on Body weight(g) increased: test concentration or dose not given here
# Description: (§1) Fucoxanthin group and test animal groups were administrated with same doses of the drugs. The basal feed control group continued to be fed with basal feed, other groups with high-fat feed. The basal feed- and model control groups were intragastric administrated with distilled water, the other, drug-administrated groups with respective doses of drug, the administration were carried out uninterruptedly for 30 d. Each group of the animals were bred in different hutches, the room temperature was controlled within (22±2)° C., using natural illumination, the animals took food and drank freely. The body weights of the animals were measured one time each week, feed-intakes of the rats were also observed and recorded. After 30 days the rats were weighed. Statistical analysis: Variance analysis of the data collected in this experiment was implemented by SAS software package, Dunnett's t-test was used for inter-group comparative analysis, p<0.05 was used as the criterion of statistical significance.
# nutritional obesity rats [2] = experiment: Weight of fat pads around testicles of nutritional obesity rats (Example 18); assay type: in vivo, rat; details: after 30 d administration, x ± s; for Body weight(g) (After-experiment): Table 2
# Description: as §1, with “significance. Experimental procedures were the same as in Example 17. […] Statistical analysis was the same as in Example 16.” for “significance.”
# nutritional obesity rats [3] = experiment: Weight of abdomen fat of nutritional obesity rats (Example 20); assay type: in vivo, rat; details: after 30 d administration, x ± s; for Body weight(g) (After-experiment): Table 4
# Description: as §1, with “significance. Experimental procedures were the same as in Example 17. […] Statistical analysis was the same as in Example 16.” for “significance.”
# [4] = system: nutritional obesity model rats; experiment: Weight of fat pads around kidneys of nutritional obesity model rats (Example 19); assay type: in vivo, rat; details: after 30 d administration, x ± s; for Body weight(g) (After-experiment): Table 3
# Description: as §1, with “significance. Experimental procedures were the same as in Example 17. […] Statistical analysis was the same as in Example 16.” for “significance.”
# lab mice = details: fucoxanthin as an additive in condensed food, experimental animals; cited from earlier work; further: test concentration or dose not given here
# [5] = compared with fucoxanthin; cited from earlier work
Compound,Body weight(g) (After-experiment) (nutritional obesity rats [1]),Body weight(g) increased (nutritional obesity rats [1]),Body weight(g) (After-experiment) (nutritional obesity rats [2]),Weight fat pads around testicles(g) (nutritional obesity rats [2]),Weight fat pads around testicles/bw × 100 (nutritional obesity rats [2]),Body weight(g) (After-experiment) (nutritional obesity rats [3]),Weight abdomen fat/bw × 100 (nutritional obesity rats [3]),Weight. abdomenfat (g) (nutritional obesity rats [3]),Body weight(g) (After-experiment) [4],Weight fat pads around kidneys(g) [4],Weight fat pads around kidneys/bw × 100 [4],other results
"CC(=O)OC1CC(C)(C)C(=C=C/C(C)=C/C=C/C(C)=C/C=C/C=C(C)/C=C/C=C(\C)C(=O)CC23OC2(C)CC(OC(=O)CC(O)(CC(=O)O)C(=O)O)CC3(C)C)[C@](C)(O)C1 (stereo partly drawn) [compound 1, fucoxanthin citrate]",515.00 ± 29.21ΔΔ g,28.50 ± 1.15ΔΔ g,,,,,,,,,,
"CC(=O)OC1CC(C)(C)C(=C=C/C(C)=C/C=C/C(C)=C/C=C/C=C(C)/C=C/C=C(\C)C(=O)CC23OC2(C)CC(OC(=O)CCC(=O)O)CC3(C)C)[C@@](C)(O)C1 (stereo partly drawn) [compound 2, fucoxanthin succinate]",,,512.1 ± 21.00 g,6.00 ± 0.11ΔΔ g,1.18 ± 0.13ΔΔ,516.03 ± 12.15 g,1.31 ± 0.12ΔΔ,6.76 ± 0.22ΔΔ g,,,,
"CC(=O)OC1CC(C)(C)C(=C=C/C(C)=C/C=C/C(C)=C/C=C/C=C(C)/C=C/C=C(\C)C(=O)CC23OC2(C)CC(OC(=O)CCC(=O)O)CC3(C)C)[C@@](C)(O)C1 (stereo partly drawn) [compound 3, fucoxanthin succinate sodium salt]",,,,,,,,,,,,Body weight(g) (After-experiment) (nutritional obesity rats [2]; succinate sodium salt): 513.1 ± 19.13 g; Weight fat pads around testicles(g) (nutritional obesity rats [2]; succinate sodium salt): 7.00 ± 0.13ΔΔ g; Weight fat pads around testicles/bw × 100 (nutritional obesity rats [2]; succinate sodium salt): 1.20 ± 0.10ΔΔ
"CC(=O)OC1CC(C)(C)C(=C=C/C=C/C=C/C(C)=C/C=C/C=C(C)/C=C/C=C(\C)C(=O)CC23OC2(C)CC(OC(=O)CCC(=O)OC[C@H](O)[C@H]2OC(=O)C(O)=C2O)CC3(C)C)[C@@](C)(O)C1 (stereo partly drawn) [compound 4, fucoxanthin succinate-4-vitamin C ester]",514.00 ± 30.22ΔΔ g,27.41 ± 1.21ΔΔ g,514.00 ± 30.22 g,4.00 ± 0.14ΔΔ g,0.70 ± 0.21ΔΔ,514.00 ± 30.22 g,0.80 ± 0.11ΔΔ,4.11 ± 0.14ΔΔ g,,,,
"CC(=O)OC1CC(C)(C)C(=C=C/C(C)=C/C=C/C(C)=C/C=C/C=C(C)/C=C/C=C(\C)C(=O)CC23OC2(C)CC(OC(=O)CC(O)(CC(=O)OC[C@H](O)[C@H]2OC(=O)C(O)=C2O)C(=O)O)CC3(C)C)[C@](C)(O)C1 (stereo partly drawn) [compound 7, fucoxanthincitrate5-vitamin C ester]",506.00 ± 19.07ΔΔ g,18.21 ± 1.12ΔΔ g,,,,,,,,,,
"CC(=O)OC1CC(C)(C)C(=C=C/C(C)=C/C=C/C(C)=C/C=C/C=C(C)/C=C/C=C(\C)C(=O)CC23OC2(C)CC(OC(=O)/C=C(/CC(=O)O)C(=O)O)CC3(C)C)[C@](C)(O)C1 (stereo partly drawn) [compound 8, fucoxanthin aconitate]",,,,,,,,,518.18 ± 15.21 g,4.40 ± 0.34ΔΔ g,0.85 ± 0.12ΔΔ,
"CC(=O)OC1CC(C)(C)C(=C=C/C(C)=C/C=C/C(C)=C/C=C/C=C(C)/C=C/C=C(\C)C(=O)CC23OC2(C)CC(OC(=O)CCCN(C)C)CC3(C)C)[C@](C)(O)C1 (stereo partly drawn) [compound 9, fucoxanthin di-methylaminobutyrate]",,,,,,,,,514.13 ± 13.00 g,5.00 ± 0.23ΔΔ g,0.98 ± 0.11ΔΔ,
"CC(=O)OC1CC(C)(C)C(=C=C/C(C)=C/C=C/C(C)=C/C=C/C=C(C)/C=C/C=C(\C)C(=O)CC23OC2(C)CC(OC(=O)CNC(=O)C(CS)NC(=O)CCC(N)C(=O)O)CC3(C)C)[C@](C)(O)C1 (stereo partly drawn) [compound 10, fucoxanthin glutathione ester]",,,,,,517.00 ± 11.23 g,1.50 ± 0.14ΔΔ,7.75 ± 0.20ΔΔ g,522.08 ± 18.11 g,4.00 ± 0.40ΔΔ g,0.75 ± 0.11ΔΔ,
"CC(=O)OC1CC(C)(C)C(=C=C/C(C)=C/C=C/C(C)=C/C=C/C=C(C)/C=C/C=C(\C)C(=O)CC23OC2(C)CC(OC(=O)[C@@H](O)[C@H](O)C(=O)O)CC3(C)C)[C@](C)(O)C1 (stereo partly drawn) [compound 11, fucoxanthin tartrate]",515.00 ± 18.90ΔΔ g,29.25 ± 1.23ΔΔ g,,,,515.00 ± 18.90 g,1.40 ± 0.13ΔΔ,7.21 ± 0.23ΔΔ g,,,,
"C\C(C=C=C1C(C)(C)CC(OC(=O)N2CCOCC2)C[C@@]1(C)O)=C/C=C/C(C)=C/C=C/C=C(C)/C=C/C=C(\C)C(=O)CC12OC1(C)CC(OC(=O)N1CCOCC1)CC2(C)C (stereo partly drawn) [compound 12, fucoxanthol bi-morpholino carbamate]",500.01 ± 20.10ΔΔ g,12.12 ± 1.25ΔΔ g,,,,,,,,,,
"CC(=O)OC1CC(C)(C)C(=C=C/C(C)=C/C=C/C(C)=C/C=C/C=C(C)/C=C/C=C(\C)C(=O)CC23OC2(C)CC(OC(=O)CCC(=O)Oc2ccc(/C=C/c4cc(O)cc(O)c4)cc2)CC3(C)C)[C@@](C)(O)C1 (stereo partly drawn) [compound 14, fucoxanthin resveratrol succinate]",514.00 ± 22.22ΔΔ g,28.52 ± 1.21ΔΔ g,514.00 ± 22.22 g,5.00 ± 0.12ΔΔ g,0.90 ± 0.12ΔΔ,,,,,,,
"CCCCC/C=C\C/C=C\CCCCCCCC(=O)OC1CC(C)(C)C2(CC(=O)/C(C)=C/C=C/C(C)=C/C=C/C=C(C)/C=C/C=C(\C)C=C=C3C(C)(C)CC(OC(C)=O)C[C@@]3(C)O)OC2(C)C1 (stereo partly drawn) [compound 15, fucoxanthin linoleate]",,,520.01 ± 16.88 g,6.34 ± 0.55ΔΔ g,1.22 ± 0.11ΔΔ,,,,,,,
"CC(=O)OC1CC(C)(C)C(=C=C/C(C)=C/C=C/C(C)=C/C=C/C=C(C)/C=C/C=C(\C)C(=O)CC23OC2(C)CC(O)CC3(C)C)[C@](C)(O)C1 (stereo partly drawn) [fucoxanthin, 3′-(Acetyloxy)-6′,7′-didehydro-5,6-epoxy-5,5′,6,6′,7,8-hexahydro-3,5′-dihydroxy-8-oxo-β,β-carotene, reference compound]",531.00 ± 20.32Δ g,43.68 ± 19.13Δ g,531.00 ± 20.32 g,7.32 ± 0.83Δ g,1.38 ± 0.11Δ,531.00 ± 20.32 g,1.81 ± 0.13Δ,9.61 ± 0.12ΔΔ g,531.00 ± 20.32 g,7.42 ± 0.60Δ g,1.42 ± 0.12Δ,"addiction or other side effects (lab mice): would not induce the addiction of the experimental animals, or had any other side effects"
"C\C(C=C=C1C(C)(C)CC(O)C[C@@]1(C)O)=C/C=C/C(C)=C/C=C/C=C(C)/C=C/C=C(\C)C(=O)CC12OC1(C)CC(O)CC2(C)C (stereo partly drawn) [fucoxanthol, reference compound]",527.00 ± 18.89ΔΔ g,39.39 ± 18.11ΔΔ g,527.00 ± 18.89 g,7.00 ± 0.67ΔΔ g,1.25 ± 0.13ΔΔ,527.00 ± 18.89 g,1.60 ± 0.11ΔΔ,7.91 ± 0.11ΔΔ g,527.00 ± 18.89 g,7.0 ± 0.58ΔΔ g,1.20 ± 0.10ΔΔ,weight-reducing activity [5]: much stronger than fucoxanthin
fucoxanthin citrate sodium salt [compound 6],507.00 ± 20.11ΔΔ g,20.32 ± 1.21ΔΔ g,,,,,,,,,,"Body weight(g) (before-experiment) (nutritional obesity rats [1]; SD male rats, after 1 month high-fat feed, before drug administration (baseline), 10 rats per group): 485.89 ± 18.99 g"
fucoxanthin succinate 4-vitamin Cester sodium salt [compound 5],,,,,,504.01 ± 18.23 g,0.71 ± 0.10ΔΔ,3.58 ± 0.21ΔΔ g,513.15 ± 11.00 g,7.00 ± 0.32ΔΔ g,1.12 ± 0.10ΔΔ,

# — patent US20120220580A1, “PREPARATION OF CAROTENOID DERIVATIVES AND THEIR APPLICATIONS” (BEIJING GINGKO GROUP BIOLOGICAL TECHNOLOGY CO., LTD., priority 2009, published 2012)
